From PubChem BioAssay AID248 (DTP/NCI, 2004)
Several values for one entry are separate records, joined by “and”; a condition that tells them apart may be missing. Equal entries are not always repeated. Inconclusive results and toxic doses are left out. Rule as the data show it: active = T/C of 150% or more; inactive = T/C below 125%.

Test system: L1210 leukemia ip in BDF1 mice, survival T/C
Experiment: NCI In Vivo Anticancer Drug Screen. Data for tumor model L1210 Leukemia (intraperitoneal) in B6D2F1 (BDF1) mice
Conditions: higher = longer survival
Procedure, shortened: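 Read-out is survival time, reported as the treated-group measurement over the vehicle-control measurement.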

Measured: T/C

CN(C)/N=N/c1nc[nH]c1C(N)=O
inactive: endpoint: mean survival time, dose: 3.12 mg/kg/injection, schedule: Q#A X Z (ip), vehicle: carboxymethylcellulose (CMC) 100 % of control | endpoint: mean survival time, dose: 3.3 mg/kg/injection, schedule: Q01DX009 (ip), vehicle: carboxymethylcellulose (CMC) 104 % of control | endpoint: mean survival time, dose: 6.2 mg/kg/injection, schedule: Q01DX Z (ip), vehicle: saline 106 % of control | endpoint: mean survival time, dose: 6.25 mg/kg/injection, schedule: Q01DX006 (iv), vehicle: carboxymethylcellulose (CMC) 107 % of control | endpoint: mean survival time, dose: 6.25 mg/kg/injection, schedule: Q01DX Z (im), vehicle: carboxymethylcellulose (CMC) 101 % of control | endpoint: mean survival time, dose: 6.25 mg/kg/injection, schedule: Q01DX Z (ip), vehicle: carboxymethylcellulose (CMC) 106 % of control | endpoint: mean survival time, dose: 6.5 mg/kg/injection, schedule: Q01DX009 (ip), vehicle: carboxymethylcellulose (CMC) 100 % of control | endpoint: mean survival time, dose: 7.5 mg/kg/injection, schedule: Q03HX032 (ip), vehicle: carboxymethylcellulose (CMC) 108 % of control | endpoint: mean survival time, dose: 9.0 mg/kg/injection, schedule: Q01DX001 (ip), vehicle: carboxymethylcellulose (CMC) 101 % of control | endpoint: mean survival time, dose: 11.4 mg/kg/injection, schedule: Q03HX032 (ip), vehicle: carboxymethylcellulose (CMC) 106 % of control | endpoint: mean survival time, dose: 12.5 mg/kg/injection, schedule: Q01DX Z (im), vehicle: carboxymethylcellulose (CMC) 106 % of control | endpoint: mean survival time, dose: 12.5 mg/kg/injection, schedule: Q#A X034 (ip), vehicle: carboxymethylcellulose (CMC) 105 % of control | endpoint: mean survival time, dose: 13.0 mg/kg/injection, schedule: Q01DX009 (ip), vehicle: carboxymethylcellulose (CMC) 100 % of control and 102 % of control | endpoint: mean survival time, dose: 15.0 mg/kg/injection, schedule: Q04DX002 (ip), vehicle: carboxymethylcellulose (CMC) 93 % of control and 110 % of control | endpoint: mean survival time, dose: 18.75 mg/kg/injection, schedule: Q01DX001 (ip), vehicle: carboxymethylcellulose (CMC) 107 % of control | endpoint: mean survival time, dose: 23.7 mg/kg/injection, schedule: Q01DX009 (ip), vehicle: carboxymethylcellulose (CMC) 108 % of control | endpoint: mean survival time, dose: 25.0 mg/kg/injection, schedule: Q01DX005 (ip), vehicle: water 110 % of control | endpoint: mean survival time, dose: 25.0 mg/kg/injection, schedule: Q01DX009 (ip), vehicle: Klucel (hydroxypropylcellulose) (HPC) 104 % of control | endpoint: mean survival time, dose: 25.0 mg/kg/injection, schedule: Q04DX003 (ip), vehicle: other 95 % of control and 103 % of control | endpoint: mean survival time, dose: 26.0 mg/kg/injection, schedule: Q03HX032 (ip), vehicle: carboxymethylcellulose (CMC) 111 % of control | endpoint: mean survival time, dose: 29.0 mg/kg/injection, schedule: Q04DX002 (ip), vehicle: carboxymethylcellulose (CMC) 100 % of control | endpoint: mean survival time, dose: 30.0 mg/kg/injection, schedule: Q## X008 (ip), vehicle: other 101 % of control | endpoint: mean survival time, dose: 31.0 mg/kg/injection, schedule: Q01DX001 (ip), vehicle: carboxymethylcellulose (CMC) 103 % of control | endpoint: mean survival time, dose: 32.0 mg/kg/injection, schedule: Q01DX005 (ip), vehicle: water 101 % of control | endpoint: mean survival time, dose: 39.0 mg/kg/injection, schedule: Q01DX009 (ip), vehicle: steriod suspending solution 108 % of control | endpoint: mean survival time, dose: 39.0 mg/kg/injection, schedule: Q01DX Z (ip), vehicle: steriod suspending solution 108 % of control | endpoint: mean survival time, dose: 50.0 mg/kg/injection, schedule: Q01DX001 (ip), vehicle: water 103 % of control | endpoint: mean survival time, dose: 50.0 mg/kg/injection, schedule: Q01DX Z (oral), vehicle: carboxymethylcellulose (CMC) 109 % of control | endpoint: mean survival time, dose: 50.0 mg/kg/injection, schedule: Q02DX009 (ip), vehicle: carboxymethylcellulose (CMC) 103 % of control | endpoint: mean survival time, dose: 50.0 mg/kg/injection, schedule: Q04DX003 (ip), vehicle: Klucel (hydroxypropylcellulose) (HPC) 110 % of control | endpoint: mean survival time, dose: 50.0 mg/kg/injection, schedule: Q04DX003 (ip), vehicle: other 104 % of control and 106 % of control | endpoint: mean survival time, dose: 50.0 mg/kg/injection, schedule: Q04DX003 (ip), vehicle: water 108 % of control | endpoint: mean survival time, dose: 50.0 mg/kg/injection, schedule: Q07DX003 (oral), vehicle: other 100 % of control | endpoint: mean survival time, dose: 50.0 mg/kg/injection, schedule: Q## X003 (ip), vehicle: carboxymethylcellulose (CMC) 105 % of control | endpoint: mean survival time, dose: 58.0 mg/kg/injection, schedule: Q04DX002 (ip), vehicle: carboxymethylcellulose (CMC) 103 % of control | endpoint: mean survival time, dose: 60.0 mg/kg/injection, schedule: Q## X008 (ip), vehicle: other 107 % of control | endpoint: mean survival time, dose: 62.0 mg/kg/injection, schedule: Q01DX001 (ip), vehicle: carboxymethylcellulose (CMC) 106 % of control | endpoint: mean survival time, dose: 65.0 mg/kg/injection, schedule: Q02DX009 (ip), vehicle: steriod suspending solution 106 % of control and 110 % of control | endpoint: mean survival time, dose: 66.0 mg/kg/injection, schedule: Q04DX003 (ip), vehicle: carboxymethylcellulose (CMC) 107 % of control | endpoint: mean survival time, dose: 100.0 mg/kg/injection, schedule: Q01DX001 (ip), vehicle: steriod suspending solution 110 % of control | endpoint: mean survival time, dose: 100.0 mg/kg/injection, schedule: Q01DX001 (ip), vehicle: water 105 % of control | endpoint: mean survival time, dose: 100.0 mg/kg/injection, schedule: Q04DX002 (ip), vehicle: Klucel (hydroxypropylcellulose) (HPC) 105 % of control | endpoint: mean survival time, dose: 100.0 mg/kg/injection, schedule: Q04DX003 (ip), vehicle: water 110 % of control | endpoint: mean survival time, dose: 100.0 mg/kg/injection, schedule: Q07DX003 (oral), vehicle: other 104 % of control | endpoint: mean survival time, dose: 100.0 mg/kg/injection, schedule: Q## X003 (ip), vehicle: carboxymethylcellulose (CMC) 109 % of control | endpoint: mean survival time, dose: 100.0 mg/kg/injection, schedule: Q## X005 (ip), vehicle: carboxymethylcellulose (CMC) 107 % of control | endpoint: mean survival time, dose: 100.0 mg/kg/injection, schedule: Q#A X Z (ip), vehicle: carboxymethylcellulose (CMC) 102 % of control | endpoint: mean survival time, dose: 108.0 mg/kg/injection, schedule: Q02DX009 (ip), vehicle: steriod suspending solution 105 % of control and 107 % of control | endpoint: mean survival time, dose: 125.0 mg/kg/injection, schedule: Q01DX001 (ip), vehicle: carboxymethylcellulose (CMC) 109 % of control | endpoint: mean survival time, dose: 168.0 mg/kg/injection, schedule: Q01DX001 (ip), vehicle: carboxymethylcellulose (CMC) 107 % of control | endpoint: mean survival time, dose: 180.0 mg/kg/injection, schedule: Q02DX009 (ip), vehicle: steriod suspending solution 101 % of control and 104 % of control | endpoint: mean survival time, dose: 200.0 mg/kg/injection, schedule: Q01DX001 (ip), vehicle: water 108 % of control | endpoint: mean survival time, dose: 200.0 mg/kg/injection, schedule: Q01DX006 (iv), vehicle: carboxymethylcellulose (CMC) 102 % of control | endpoint: mean survival time, dose: 264.0 mg/kg/injection, schedule: Q01DX001 (ip), vehicle: other 110 % of control | endpoint: mean survival time, dose: 300.0 mg/kg/injection, schedule: Q01DX009 (ip), vehicle: steriod suspending solution 108 % of control | endpoint: mean survival time, dose: 300.0 mg/kg/injection, schedule: Q01DX Z (ip), vehicle: steriod suspending solution 108 % of control | endpoint: mean survival time, dose: 300.0 mg/kg/injection, schedule: Q03DX Z (ip), vehicle: carboxymethylcellulose (CMC) 103 % of control | endpoint: mean survival time, dose: 336.0 mg/kg/injection, schedule: Q01DX001 (ip), vehicle: carboxymethylcellulose (CMC) 109 % of control | endpoint: mean survival time, dose: 400.0 mg/kg/injection, schedule: Q01DX009 (ip), vehicle: other 106 % of control and 108 % of control | endpoint: mean survival time, dose: 400.0 mg/kg/injection, schedule: Q01DX009 (ip), vehicle: water 102 % of control | endpoint: mean survival time, dose: 400.0 mg/kg/injection, schedule: Q01DX Z (sc), vehicle: carboxymethylcellulose (CMC) 108 % of control | endpoint: mean survival time, dose: 400.0 mg/kg/injection, schedule: Q## X009 (ip), vehicle: carboxymethylcellulose (CMC) 110 % of control | endpoint: mean survival time, dose: 800.0 mg/kg/injection, schedule: Q01DX Z (oral), vehicle: carboxymethylcellulose (CMC) 96 % of control | endpoint: median survival time, dose: 20.0 mg/kg/injection, schedule: Q01DX009 (ip), vehicle: Klucel (hydroxypropylcellulose) (HPC) 106 % of control | endpoint: median survival time, dose: 20.0 mg/kg/injection, schedule: Q01DX015 (ip), vehicle: Klucel (hydroxypropylcellulose) (HPC) 110 % of control | endpoint: median survival time, dose: 65.0 mg/kg/injection, schedule: Q01DX001 (ip), vehicle: steriod suspending solution 100 % of control | endpoint: median survival time, dose: 65.0 mg/kg/injection, schedule: Q01DX009 (ip), vehicle: Klucel (hydroxypropylcellulose) (HPC) 110 % of control | endpoint: median survival time, dose: 65.0 mg/kg/injection, schedule: Q04DX003 (ip), vehicle: steriod suspending solution 110 % of control | endpoint: median survival time, dose: 108.0 mg/kg/injection, schedule: Q01DX001 (ip), vehicle: steriod suspending solution 110 % of control | endpoint: median survival time, dose: 108.0 mg/kg/injection, schedule: Q01DX014 (ip), vehicle: Klucel (hydroxypropylcellulose) (HPC) 94 % of control | endpoint: median survival time, dose: 108.0 mg/kg/injection, schedule: Q04DX003 (ip), vehicle: steriod suspending solution 110 % of control | endpoint: median survival time, dose: 180.0 mg/kg/injection, schedule: Q01DX001 (ip), vehicle: steriod suspending solution 100 % of control | endpoint: median survival time, dose: 180.0 mg/kg/injection, schedule: Q01DX014 (ip), vehicle: Klucel (hydroxypropylcellulose) (HPC) 108 % of control | endpoint: median survival time, dose: 300.0 mg/kg/injection, schedule: Q01DX001 (ip), vehicle: steriod suspending solution 110 % of control | endpoint: median survival time, dose: 300.0 mg/kg/injection, schedule: Q01DX013 (ip), vehicle: Klucel (hydroxypropylcellulose) (HPC) 105 % of control and 107 % of control | endpoint: median survival time, dose: 300.0 mg/kg/injection, schedule: Q01DX014 (ip), vehicle: Klucel (hydroxypropylcellulose) (HPC) 101 % of control | endpoint: median survival time, dose: 400.0 mg/kg/injection, schedule: Q04DX003 (ip), vehicle: Klucel (hydroxypropylcellulose) (HPC) 110 % of control | endpoint: median survival time, dose: 500.0 mg/kg/injection, schedule: Q01DX001 (ip), vehicle: steriod suspending solution 110 % of control | endpoint: median survival time, dose: 500.0 mg/kg/injection, schedule: Q01DX013 (ip), vehicle: Klucel (hydroxypropylcellulose) (HPC) 105 % of control and 107 % of control | endpoint: median survival time, dose: 500.0 mg/kg/injection, schedule: Q01DX014 (ip), vehicle: Klucel (hydroxypropylcellulose) (HPC) 102 % of control | endpoint: median survival time, dose: 833.0 mg/kg/injection, schedule: Q01DX009 (ip), vehicle: Klucel (hydroxypropylcellulose) (HPC) 110 % of control | endpoint: median survival time, dose: 1600.0 mg/kg/injection, schedule: Q04DX003 (ip), vehicle: Klucel (hydroxypropylcellulose) (HPC) 95 % of control
